This is an account of results in publication PMC10818821, “Towards a New Generation of Hormone Therapies: Design, Synthesis and Biological Evaluation of Novel 1,2,3-Triazoles as Estrogen-Positive Breast Cancer Therapeutics and Non-Steroidal Aromatase Inhibitors” (Pharmaceuticals, 2024).

In this assay the target is T1, aromatase (CYP19) (Homo sapiens, UniProt P11511).
T1 construct: gene CYP19A1
T1 sequence (P11511 1-503): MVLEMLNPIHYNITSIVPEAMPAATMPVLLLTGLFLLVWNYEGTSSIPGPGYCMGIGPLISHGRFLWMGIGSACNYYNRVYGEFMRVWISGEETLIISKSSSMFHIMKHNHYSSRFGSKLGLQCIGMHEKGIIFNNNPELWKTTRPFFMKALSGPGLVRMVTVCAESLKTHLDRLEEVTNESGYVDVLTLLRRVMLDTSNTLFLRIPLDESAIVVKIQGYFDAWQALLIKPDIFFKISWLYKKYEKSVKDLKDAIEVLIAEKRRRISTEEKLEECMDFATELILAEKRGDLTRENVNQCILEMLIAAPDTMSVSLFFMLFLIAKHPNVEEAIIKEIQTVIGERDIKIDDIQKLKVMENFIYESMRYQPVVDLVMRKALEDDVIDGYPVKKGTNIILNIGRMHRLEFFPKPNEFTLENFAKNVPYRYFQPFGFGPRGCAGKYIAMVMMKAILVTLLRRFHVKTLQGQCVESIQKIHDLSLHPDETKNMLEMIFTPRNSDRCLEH
The assay is described as follows: fluorogenic aromatase activity assay (Abcam kit), dose-response […]. In kind it is biochemical.
For `COc1ccc(-n2nnc(C(C)=NN=c3sc(C(C)=O)nn3-c3ccccc3)c2C)cc1` [compound 4, 1-(5-((1-(1-(4-Methoxyphenyl)-5-methyl-1H-1,2,3-triazol-4-yl)ethylidene)hydrazono)-4-phenyl-4,5-dihydro-1,3,4-thiadiazol-2-yl)ethan-1-one], the IC50 was 3.62 µM. `COc1ccc(-n2nnc(C(C)=NN=c3sc(C(C)=O)nn3-c3ccc(C)cc3)c2C)cc1` [compound 5, 1-(5-((1-(1-(4-Methoxyphenyl)-5-methyl-1H-1,2,3-triazol-4-yl)ethylidene)hydrazono)-4-(p-tolyl)-4,5-dihydro-1,3,4-thiadiazol-2-yl)ethan-1-one] displayed an IC50 of 1.99 µM. In the case of `CCOC(=O)c1nn(-c2ccccc2)c(=NN=C(C)c2nnn(-c3ccc(OC)cc3)c2C)s1` [compound 6, Ethyl 5-((1-(1-(4-Methoxyphenyl)-5-methyl-1H-1,2,3-triazol-4-yl)ethylidene)hydrazono)-4-phenyl-4,5-dihydro-1,3,4-thiadiazole-2-carboxylate], 3.57 µM corresponded to half-maximal inhibition (IC50). In the case of `CCOC(=O)c1nn(-c2ccc(C)cc2)c(=NN=C(C)c2nnn(-c3ccc(OC)cc3)c2C)s1` [compound 7, Ethyl 5-((1-(1-(4-Methoxyphenyl)-5-methyl-1H-1,2,3-triazol-4-yl)ethylidene) hydrazono)-4-(p-tolyl)-4,5-dihydro-1,3,4-thiadiazole-2-carboxylate], half-maximal inhibition (IC50) required 2.99 µM.

By IC50 is commonly meant the concentration at which inhibition is half-maximal. A high value points to a need for much substance.
